Test results from article PMC8961646, “Fibroblast Activation Protein Specific Optical Imaging in Non-Small Cell Lung Cancer” (Frontiers in Oncology, 2022).
Non-standard residues stand in square brackets, D forms with d. Residues, ends and D or L forms follow the SMILES beside them. *: point of attachment. 5FAM = O=C1OC2(c3ccc(O)cc3Oc3cc(O)ccc32)c2ccc(C(=O)*)cc21; MethylRed = CN(C)c1ccc(/N=N/c2ccccc2C(=O)*)cc1; AEEA = NCCOCCOCC(=O)O

Assays:
[1] = Probe stability in activated neutrophil lysate
Protocol: Assays were undertaken in triplicate in blackened 384 well plates on ice prior to spectral reads.
Neutrophils were isolated from peripheral blood of healthy volunteers by discontinuous percoll gradients, as previously described ([29]). Cells were resuspended in PBS (at 10 million cells/ml) and stimulated with 1 µM calcium ionophore, then lysed with 1% Triton-X-100. Lysate was used at 1:1 dilution for experiments, replacing recombinant enzymes in the assay as described above, with PBS as the buffer.
MALDI spectra were acquired on a Bruker Ultraflextreme MALDI-TOF MS. Neutrophil lysate experiment samples were prepared by plating 1 µl of the sample with 1 µl of the matrix solution sinapic acid (10 mg/mL) in H2O/CH3CN/TFA (70/30/0.1).

[2] = system: NSCLC patient tissue samples; experiment: Fluorescence intensity and lifetime imaging (FLIM) of ex vivo NSCLC tissue; parameters: species or system human; conditions: FAP3 5 µM, ex vivo NSCLC samples N=5, imaged at 10-minute intervals to 40 minutes, 488 nm excitation
Protocol: For imaging solutions, varying concentrations of rhFAP were prepared in blackened eppendorfs and FAP3 to a final concentration of 5µM added and imaged as below. For biological specimens, NSCLC patient tissue samples from surgical resection were used fresh or snap frozen and stored at -80°C until required. Small fragments (approx. 4mm^3) incubated at 37°C in a 96 well plate in phenyl-red free DMEM (Gibco) containing 10% FCS, 1% Penicillin-streptomycin and 1% L-Glutamine. For the tissue fragments to be used as inhibitor controls, we added Talabostat at a dilution of 1:1000. Samples were then imaged using a clinically approved fluorescence lifetime imaging system used in conjunction with an imaging fibre ([30]) providing a 400 x 400 µm field of view. The imaging system incorporates a pulsed supercontinuum laser source, in this case tuned for excitation at 488 nm, with an achromatic confocal laser scanning system and a time-resolved spectrometer. This spectrometer contains a 512 channel single photon avalanche diode (SPAD) sensor ([31]) allowing for the rapid collection of time resolved spectral fluorescence lifetime data. Fluorescence intensity and lifetime images were collected using an image resolution of 160 x 160 pixels over a 498 – 570 nm spectral range with an exposure time of 13 µs per pixel. This led to an imaging rate of ~3 frames per second.
For each condition, the tumour samples were imaged using a fibre placed at the surface of the tissue (baseline), and then again at 10-minute intervals following the additions of equimolar concentrations of probe +/- Inhibitor. For imaging solutions, the fibre was held within the solution and imaged every 5 minutes. Each condition and time-point data for both fluorescence intensity and lifetime were collected. Imaging sequences had non-relevant frames removed, and the entire field of view was analysed. Analysis was undertaken using a bespoke software suite utilising the rapid lifetime determination (RLD) method ([32]). […]

[3] = target: T1, rhPREP (Homo sapiens, UniProt P48147); experiment: Probe cleavage by recombinant human PREP (fluorescence plate assay, MALDI confirmation); format: biochemical
T1 construct: purchased R&D Systems
T1 sequence (P48147 1-710): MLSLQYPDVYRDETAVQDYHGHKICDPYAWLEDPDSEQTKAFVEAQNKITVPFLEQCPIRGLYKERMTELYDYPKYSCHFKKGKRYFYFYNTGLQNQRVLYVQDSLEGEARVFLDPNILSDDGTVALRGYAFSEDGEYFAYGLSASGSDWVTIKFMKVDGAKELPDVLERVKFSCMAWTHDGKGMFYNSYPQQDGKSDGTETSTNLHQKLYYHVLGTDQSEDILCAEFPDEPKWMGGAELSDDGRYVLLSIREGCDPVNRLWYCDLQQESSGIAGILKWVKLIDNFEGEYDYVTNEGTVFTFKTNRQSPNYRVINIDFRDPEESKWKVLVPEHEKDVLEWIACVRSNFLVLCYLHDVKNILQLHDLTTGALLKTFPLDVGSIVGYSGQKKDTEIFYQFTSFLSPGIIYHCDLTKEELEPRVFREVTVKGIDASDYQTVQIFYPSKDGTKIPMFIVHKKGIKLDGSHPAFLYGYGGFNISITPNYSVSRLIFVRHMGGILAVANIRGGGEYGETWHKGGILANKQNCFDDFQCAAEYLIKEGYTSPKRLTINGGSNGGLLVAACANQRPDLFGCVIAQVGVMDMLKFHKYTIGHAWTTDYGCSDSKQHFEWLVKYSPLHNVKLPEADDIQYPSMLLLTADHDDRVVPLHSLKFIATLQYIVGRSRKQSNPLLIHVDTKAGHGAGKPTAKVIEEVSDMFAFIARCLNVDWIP

[4] = system: FAP+ CAFs from NSCLC patient samples; experiment: Probe cleavage on cancer associated fibroblasts (CAFs); format: cell-based, human; conditions: FAP3 5 µM, confluent CAF monolayer in 96 well plate, DPBS, read 480/530 nm for one hour, n=3 run in triplicate
Protocol: CAFs were isolated from NSCLC patient samples as previously described ([28]). Briefly, tissue samples were minced with forceps and incubated for an hour in prewarmed RPMI media (Gibco) containing collagenase IV [2 mg/ml] (Sigma) and DNase [0.2 mg/ml] (Sigma). Samples were spun at 350 g for 5 minutes and red blood cells were lysed from samples using RBC lysis buffer (BioLegend) in 10 ml for 10 minutes. Following a further spin at 350 g for 5 minutes, cells were seeded in culture flasks in DMEM containing 10% FCS, 1% Penicillin-Streptomycin, 1% L-Glutamine and 10% Insulin Transferrin Selenium (ITS). 24 hours after seeding, non-adherent cells were washed from the flasks. Cells were maintained by standard cell culture methods and by passage 2, the predominant cell type was CAFs, assessed by flow cytometry markers and morphology. CAFs between passage 4-9 were used to assess FAP probes and confirmed to be FAP^hi by flow cytometry.
CAFs were seeded into 96 well plates in a 100 µl media (complete DMEM as described above) at a density of 1x10^5 cells/ml to form a confluent monolayer within 24 hours. […] Immediately after adding imaging probes, the plate was transferred to the prewarmed spectrophotometer as above and read at 480/530 nm for one hour.

[5] = target: MMP 13 (Homo sapiens, UniProt P45452); experiment: Probe assessment against recombinant MMP panel; format: biochemical; conditions: recombinant enzyme, n=2 run in triplicate
[6] = target: rhDPPIV (Homo sapiens, UniProt P27487); experiment: Probe cleavage by recombinant human DPP-IV (exopeptidase activity); conditions: probe 5 µM, rhDPPIV 0.1 µg/ml, TRIS buffer pH 7.5, read 480/530 nm, n=3 run in triplicate
Sequence of rhDPPIV (P27487 29-766 limits assumed): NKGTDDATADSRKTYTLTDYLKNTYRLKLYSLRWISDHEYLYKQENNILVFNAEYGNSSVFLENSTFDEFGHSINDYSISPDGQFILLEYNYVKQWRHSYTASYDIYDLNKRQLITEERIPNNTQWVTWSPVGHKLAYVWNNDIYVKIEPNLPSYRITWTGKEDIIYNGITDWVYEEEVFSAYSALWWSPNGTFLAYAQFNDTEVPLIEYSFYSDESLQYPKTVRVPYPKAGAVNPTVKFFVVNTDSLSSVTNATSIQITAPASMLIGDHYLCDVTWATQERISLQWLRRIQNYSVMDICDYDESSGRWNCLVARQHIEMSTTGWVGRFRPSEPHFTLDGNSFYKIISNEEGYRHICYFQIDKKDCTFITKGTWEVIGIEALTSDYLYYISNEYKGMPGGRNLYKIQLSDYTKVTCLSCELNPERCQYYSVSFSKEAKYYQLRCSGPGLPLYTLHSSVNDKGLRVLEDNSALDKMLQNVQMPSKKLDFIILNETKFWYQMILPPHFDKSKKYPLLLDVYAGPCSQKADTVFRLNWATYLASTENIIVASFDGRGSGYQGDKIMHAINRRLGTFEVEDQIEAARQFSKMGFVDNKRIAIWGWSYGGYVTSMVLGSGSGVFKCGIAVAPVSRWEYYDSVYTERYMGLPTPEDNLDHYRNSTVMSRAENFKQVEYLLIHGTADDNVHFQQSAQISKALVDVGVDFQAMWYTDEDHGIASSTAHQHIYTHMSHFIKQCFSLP
Protocol: Recombinant human enzymes [rhFAP (R&D Systems), rhPREP (R&D Systems) and rhDPPIV (Biolegend)] were stored in stocks at -70°C and diluted as required to be used at final concentration of 0.1 µg/ml. Enzymes were aliquoted upon receipt from the supplier and new stocks made from a fresh aliquot as required.
Assays were undertaken in triplicate in blackened 384 well plates on ice prior to spectral reads. […] All wells contained a final volume of 20 µl to include buffers, inhibitors (if used), substrates and recombinant human enzymes (at a concentration of 0.1 µg/ml unless otherwise stated). […] Plates were sealed with an optical plate sealer (Biolegend) and were read in a preheated spectrophotometer (Synergy Biotek) in monochromator-based mode at 380/460 nm for control substrates and 480/530 nm for synthesised FAP probes.

[7] = target: T2, MMP 2 (Homo sapiens, UniProt P08253); experiment: Probe assessment against recombinant MMP panel; format: biochemical; conditions: recombinant enzyme, n=2 run in triplicate
T2 sequence (P08253 110-660): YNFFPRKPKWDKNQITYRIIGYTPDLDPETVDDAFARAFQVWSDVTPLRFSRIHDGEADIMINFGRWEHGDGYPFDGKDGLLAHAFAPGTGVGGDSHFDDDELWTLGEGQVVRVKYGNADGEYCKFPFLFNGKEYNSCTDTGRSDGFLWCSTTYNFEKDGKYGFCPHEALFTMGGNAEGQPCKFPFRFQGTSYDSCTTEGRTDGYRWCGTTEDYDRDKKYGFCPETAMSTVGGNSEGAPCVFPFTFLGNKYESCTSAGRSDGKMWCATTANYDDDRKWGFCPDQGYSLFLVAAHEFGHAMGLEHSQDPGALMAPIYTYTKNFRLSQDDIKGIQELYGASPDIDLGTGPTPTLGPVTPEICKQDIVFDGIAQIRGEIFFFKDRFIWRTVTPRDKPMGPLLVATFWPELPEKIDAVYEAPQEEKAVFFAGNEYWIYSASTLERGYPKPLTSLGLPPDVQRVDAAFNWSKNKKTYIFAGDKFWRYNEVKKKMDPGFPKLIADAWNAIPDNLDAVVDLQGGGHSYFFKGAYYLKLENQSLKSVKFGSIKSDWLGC

In the case of `CC(C)[C@H](NC(=O)[C@@H](N)CCCCNC(=O)c1ccccc1/N=N/c1ccc(N(C)C)cc1)C(=O)N[C@H](CO)C(=O)N1CCC[C@H]1C(=O)N[C@@H](CC(N)=O)C(=O)N[C@@H](CCC(N)=O)C(=O)NCC(=O)N[C@@H](CCCCNC(=O)c1ccc2c(c1)C(=O)OC21c2ccc(O)cc2Oc2cc(O)ccc21)C(=O)NCCOCCOCC(=O)N[C@H](CCCCN)C(=O)NCCOCCOCC(=O)N[C@H](CCCCN)C(=O)NCCOCCOCC(=O)N[C@H](CCCCN)C(N)=O` [FAP3] (H-K(MethylRed)V[dS]PNQGK(5FAM)[AEEA][dK][AEEA][dK][AEEA][dK]-NH2), the “Stability in activated neutrophil lysate (MALDI-TOF)” value ([1]; activated human neutrophil lysate, MALDI-TOF read-out, sinapic acid matrix) is reported as “remained intact”, the “Stability in activated neutrophil lysate (fluorescence)” value ([1]; human neutrophils 10 million cells/ml, 1 µM calcium ionophore, lysed with 1% Triton-X-100, lysate at 1:1 dilution, PBS, fluorescence 480/530 nm, n=2 run in triplicate) is reported as “stable” and the “Change in fluorescence intensity in NSCLC tissue” value ([2]; 37°C) is reported as “increase in fluorescence intensity”. The “Change in fluorescence lifetime in NSCLC tissue” value ([2]; RLD method) was “change to a longer lifetime signature”, the “Cleavage by rhPREP by MALDI” value ([3]; MALDI-TOF read-out) was “no cleavage” and the “Cleavage by rhPREP (fluorescence signal)” value ([3]; probe 5 µM, rhPREP 0.1 µg/ml, TRIS buffer pH 7.5, read 480/530 nm, n=3 run in triplicate) was “no rhPREP cleavage”. The “Cleavage by FAP+ CAFs (fluorescence)” value [4] was “cleaved”, the “Activity with MMP 13” value [5] was “no activity” and the “Cleavage by DPP-IV (exopeptidase activity, fluorescence signal)” value [6] was “no cleavage”. For the same compound, the “Activity with MMP 2” value [7] was “no activity”.
